Where two headings read alike, the source gives them in different places. Ends that are not written are not given here. Peptide text beside a SMILES is read from it.
Biological target: T1, DRB1*0301 (DR3w17) (Homo sapiens, UniProt P01903+P01911, A100K/A102G/A103R/A169T/F55Y/I96L/K41T/L162R/M171V/P40S/Q125H/Q178H/Q39Y/R42S/S66N/T106N/T262R/W38E/Y61H)
T1 construct: used as sources of human HLA class II molecules; endogenous in cells; host or cells: MAT (EBV-transformed homozygous B cell line)
Test: Class II peptide-binding assay, DR3 (pH 4.5);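 also: unlabeled peptide competing with a radiolabeled probe peptide for binding to affinity-purified HLA-DR3, IC50 regarded as an approximation of Kd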
Settings: Table VIII

[1] = read-out: In IC50 Format DR3 nM, values in parentheses read as lower bounds

T1 sequence (P01903 26-254, other chains not shown): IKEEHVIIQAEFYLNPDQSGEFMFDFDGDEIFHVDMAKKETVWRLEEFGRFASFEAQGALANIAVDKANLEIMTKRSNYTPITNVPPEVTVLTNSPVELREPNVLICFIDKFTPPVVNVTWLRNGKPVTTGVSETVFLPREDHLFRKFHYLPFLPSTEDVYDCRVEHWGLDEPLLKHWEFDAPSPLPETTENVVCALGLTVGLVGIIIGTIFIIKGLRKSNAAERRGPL

IC50 [1] [µM] | Compound | also measured
50.8 | CC(C)C[C@H](NC(=O)[C@H](Cc1ccc(O)cc1)NC(=O)[C@H](CC(N)=O)NC(=O)[C@@H](N)Cc1ccc(O)cc1)C(=O)N[C@@H](CO)C(=O)N[C@H](C(=O)N[C@@H](CC(=O)O)C(=O)N[C@H](C(=O)NCC(=O)N[C@@H](CO)C(=O)N[C@@H](CS)C(=O)N[C@H](C(=O)N[C@@H](CC(C)C)C(=O)N[C@H](C(=O)N[C@@H](CS)C(=O)O)C(C)C)[C@@H](C)O)C(C)C)[C@@H](C)O [Peptide 39.0346] (H-YNYLSTDVGSCTLVC-OH) | –
37.5 | CSCC[C@H](NC(=O)[C@H](CC(=O)O)NC(=O)[C@H](CC(=O)O)NC(=O)[C@H](CC(=O)O)NC(=O)[C@H](CCC(=O)O)NC(=O)[C@H](CC(C)C)NC(=O)[C@H](CC(C)C)NC(=O)[C@H](CO)NC(=O)[C@@H](N)CCCNC(=N)N)C(=O)NCC(=O)N[C@@H](CC(=O)O)C(=O)N[C@@H](CC(C)C)C(=O)N[C@H](C(=O)N[C@@H](CC(=O)O)C(=O)N[C@@H](C)C(=O)O)C(C)C [Peptide 39.0374] | –
> 111 | DTILWKDIFHKNNQL [Peptide 39.0342] | –
– | CC(C)C[C@H](NC(=O)[C@H](CCCCN)NC(=O)[C@H](Cc1c[nH]c2ccccc12)NC(=O)[C@H](CC(C)C)NC(=O)[C@H](CC(=O)O)NC(=O)[C@H](CO)NC(=O)[C@H](Cc1ccccc1)NC(=O)[C@@H](NC(=O)[C@H](CCC(=O)O)NC(=O)[C@H](CCC(N)=O)NC(=O)[C@H](CO)NC(=O)[C@H](CC(C)C)NC(=O)[C@@H]1CCCN1C(=O)[C@@H]1CCCN1C(=O)[C@@H](N)CCC(=O)O)[C@@H](C)O)C(=O)O [Peptide 39.0409] | IC50 (read-out: In IC50 Format DR3): > 120 µM
> 111 | LVTYNTDTFESMPNP [Peptide 39.0345] | –
– | CC[C@H](C)[C@H](NC(=O)[C@H](CCC(N)=O)NC(=O)[C@H](CC(C)C)NC(=O)[C@@H](NC(=O)[C@H](Cc1ccccc1)NC(=O)[C@H](Cc1ccc(O)cc1)NC(=O)[C@H](CCC(=O)O)NC(=O)CNC(=O)[C@H](CC(=O)O)NC(=O)[C@H](CC(C)C)NC(=O)[C@@H]1CCCN1C(=O)[C@H](CCCCN)NC(=O)[C@@H](N)CCCCN)[C@@H](C)O)C(=O)N[C@@H](CCCNC(=N)N)C(=O)NCC(=O)O [Peptide 39.0422] | IC50 (read-out: In IC50 Format DR3): > 120 µM
– | CSCC[C@H](NC(=O)[C@H](CCCNC(=N)N)NC(=O)[C@H](CO)NC(=O)[C@H](Cc1ccccc1)NC(=O)[C@H](CCC(=O)O)NC(=O)[C@H](CO)NC(=O)[C@@H](NC(=O)[C@H](CC(C)C)NC(=O)[C@H](CCC(=O)O)NC(=O)[C@H](CCCNC(=N)N)NC(=O)[C@@H](N)Cc1ccccc1)C(C)C)C(=O)N[C@@H](C)C(=O)N[C@@H](CCCNC(=N)N)C(=O)N[C@@H](CC(=O)O)C(=O)N1CCC[C@H]1C(=O)O [Peptide 39.0370] | IC50 (values in parentheses read as lower bounds, read-out: In IC50 Format DR3): 4.23 µM
– | CC[C@H](C)[C@H](NC(=O)[C@@H](NC(=O)[C@H](Cc1c[nH]cn1)NC(=O)[C@@H](N)CC(C)C)C(C)C)C(=O)N[C@@H](CCCCN)C(=O)N[C@@H](CO)C(=O)N[C@@H](CC(=O)O)C(=O)N[C@@H](CC(C)C)C(=O)N[C@H](C(=O)N[C@@H](CC(N)=O)C(=O)N[C@@H](CCC(=O)O)C(=O)N[C@@H](CCC(=O)O)C(=O)N[C@@H](C)C(=O)N[C@H](C(=O)NCC(=O)O)[C@@H](C)O)C(C)C [Peptide 39.0314] | IC50 (page 2, pH 4.5, read-out: In IC50 Format DR3): 2.31 µM

— patent publication EP1388586A2, “Identification of broadly reactive DR restricted epitopes” (priority 1998, dated 1999)
